Among the data in patent US7897629B2, “Therapeutic compounds” (Allergan, Inc., priority 2006, dated 2011) are EC50 values, retold here.

The target of experiment [1] is T1, EP2 (Homo sapiens, UniProt P43116). In words: EP2 binding assay.
For experiment [2], the target named is T1, EP2. In words: EP2 Ca2+ signal assay. The class given is cell-based.
In experiment [3] the target is T1, EP2. In words: EP2 cAMP functional assay. The class given is cell-based.

T1 sequence (P43116 whole entry): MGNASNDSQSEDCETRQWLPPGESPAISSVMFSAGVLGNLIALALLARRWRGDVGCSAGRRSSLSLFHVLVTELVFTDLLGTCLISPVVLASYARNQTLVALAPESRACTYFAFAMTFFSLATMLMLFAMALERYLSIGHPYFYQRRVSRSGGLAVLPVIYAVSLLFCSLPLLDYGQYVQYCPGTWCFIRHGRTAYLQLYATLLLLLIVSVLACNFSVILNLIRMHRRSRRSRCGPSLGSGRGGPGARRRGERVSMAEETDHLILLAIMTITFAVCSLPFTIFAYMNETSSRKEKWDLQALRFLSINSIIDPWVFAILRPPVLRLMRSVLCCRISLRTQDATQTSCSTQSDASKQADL

As a reminder, the EC50 is the concentration that produces a half-maximal response. A higher EC50 goes with a need for much substance. As to `CCCCCC(O)c1ccc(N2C(COCc3ccc(C(=O)O)s3)CCS2(=O)=O)cc1` (stereo not drawn) [Compound 15], the EC50 on EP2 [1] came to 2.92 µM; at EP2 [2] it was 8.32 µM; on EP2 [3], 0.115 µM.

Turning to `CCCCCC(=O)c1ccc(N2C(COCc3ccc(C(=O)O)s3)CCS2(=O)=O)cc1` (stereo not drawn) [Compound 17], the EC50 stood at 1.2 µM on EP2 [1], 5.42 µM on EP2 [2] and 0.098 µM on EP2 [3].
